Laboratory results as given in US8426194B2, “Methods and agents for screening for compounds capable of modulating VEGF expression” (PTC Therapeutics, Inc., priority 2003, dated 2013).

Test system: VEGF UTRs
Experiment: Luciferase reporter inhibition in B9 (VEGF UTRs) versus B12 (no VEGF UTRs) cell lines
Assay type: cell-based, human
Settings: B9 with VEGF 5'- and 3'-UTRs, B12 without
Description: A monocistronic reporter construct (pLuc/vegf5′+3′UTR) is under the transcriptional control of the CMV promoter and contains a VEGF IRES driving the luciferase reporter, which nucleic acid sequences are both upstream of a VEGF 3′-UTR. Stable cell lines are generated by transfecting 293 cells with the pLuc/vegf5′+3′UTR. A stable cell line is cultured under hygromycin B selection to create clonal cell lines consistent with protocols well known in the art. After two weeks of selection, clonal cell lines are screened for luciferase activity. The luciferase activity of several clonal cell lines (hereafter “clones”) are compared and normalized against total protein content. Clones are maintained under hygromycin B selection for more than three months with intermittent monitoring of luciferase activity. Clones are stable and maintain a high level of luciferase expression. Many clones, for example, about twenty, may be compared to each other with respect to luciferase activity. […] Particular parameters for clones are studied prior to selection for use in post-transcriptional, high-throughput screening (PTHTS). Relevant parameters for PTHTS include, but are not limited to, cell number, incubation time, DMSO concentration, and volume of substrate. The B9 cell line harbors the firefly luciferase reporter driven by the CMV promoter and flanked by the 5′- and 3′-UTRs of VEGF transcripts. […]

## COc1ccc(C[C@H](N)C(=O)N[C@H]2[C@@H](O)[C@H](n3cnc4c(N(C)C)ncnc43)O[C@@H]2CO)cc1 [puromycin]
  UTR specificity: luciferase inhibition in B9 versus B12 cell lines: does not change the difference of inhibition in luciferase expression in these two cell lines
